“Also recorded” adds a separate entry of the source. Square brackets hold non-standard residues; d marks the D form. Ends that are not written are not given here. Lys(N3) = [N-]=[N+]=NCCCC[C@H](N)C(=O)O
Molecular target: T1, rat aminopeptidase N (Rat APN) (Rattus norvegicus, UniProt P15684)
T1 sequence (P15684 1-965): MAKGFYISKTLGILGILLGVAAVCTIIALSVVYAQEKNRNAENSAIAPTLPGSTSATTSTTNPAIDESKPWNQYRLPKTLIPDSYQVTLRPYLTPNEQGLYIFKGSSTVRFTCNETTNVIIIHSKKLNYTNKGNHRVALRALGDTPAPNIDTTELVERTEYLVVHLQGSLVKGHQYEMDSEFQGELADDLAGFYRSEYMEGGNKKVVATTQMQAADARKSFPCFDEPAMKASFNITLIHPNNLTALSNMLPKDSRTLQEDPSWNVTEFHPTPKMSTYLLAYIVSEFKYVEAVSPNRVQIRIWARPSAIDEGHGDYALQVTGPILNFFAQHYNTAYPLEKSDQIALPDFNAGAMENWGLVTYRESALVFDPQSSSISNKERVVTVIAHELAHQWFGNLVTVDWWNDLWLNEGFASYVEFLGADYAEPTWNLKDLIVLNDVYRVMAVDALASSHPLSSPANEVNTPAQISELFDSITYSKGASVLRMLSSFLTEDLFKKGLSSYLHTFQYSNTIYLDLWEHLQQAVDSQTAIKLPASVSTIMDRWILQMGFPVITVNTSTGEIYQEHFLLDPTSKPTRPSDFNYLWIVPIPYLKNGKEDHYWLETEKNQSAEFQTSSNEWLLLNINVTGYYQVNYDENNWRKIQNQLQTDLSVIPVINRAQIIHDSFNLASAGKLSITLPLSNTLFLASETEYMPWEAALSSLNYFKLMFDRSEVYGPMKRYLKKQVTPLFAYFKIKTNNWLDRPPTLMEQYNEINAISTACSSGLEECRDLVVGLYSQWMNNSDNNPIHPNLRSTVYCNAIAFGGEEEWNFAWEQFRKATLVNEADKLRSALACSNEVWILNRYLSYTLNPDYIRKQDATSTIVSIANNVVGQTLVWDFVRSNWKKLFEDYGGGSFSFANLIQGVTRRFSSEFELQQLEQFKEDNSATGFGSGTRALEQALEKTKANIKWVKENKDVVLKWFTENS
Test: Terminal amino acid cleavage of peptide-linker conjugates monitored by LCMS, Rat APN
Type: biochemical
Settings: incubated with Rat APN
Procedure: (§1) The peptide-linker conjugates were evaluated for amino acid cleavage at peptide N-termini by N-terminal aminopeptidases (Table 6, below).
(§2) The peptide-linker conjugates shown in Table 6 were incubated with either proline iminopeptidase (“PIP”) or rat aminopeptidase N (“Rat APN”), and peptide cleavage was monitored by LCMS. All other cleavage reactions were measured in a similar manner.

Row | Cleaved by Rat APN | Substance
1 | No | KKMKKM{LYS(N3)} [2] (KKMKKM[Lys(N3)]; also: oligo linker) [Entry 2, 71, positive class, oligo linker]
2 | Yes | KKMKKM{LYS(N3)} [4] (KKMKKM[Lys(N3)]; also: PEG4 linker) [Entry 4, 71, positive class, PEG4 linker]
3 | Yes | DDMDDM{LYS(N3)} [Entry 5]
4 | Yes | AAMAAM{LYS(N3)} [Entry 7]
5 | Yes | FFMFFM{LYS(N3)} (FFMFFM[Lys(N3)]; also: oligo linker) [Entry 6, 73, aromatic class, oligo linker]
6 | No | KKMKKM{LYS(N3)} [3] (KKMKKM[Lys(N3)]; also: oligo-PEG linker) [Entry 3, 71, positive class, oligo-PEG linker]

Test system: amino acid at a terminal position of a polypeptide
Test: not given
Settings: amino acid identity at a terminal position of a polypeptide; phospho-Y also at an internal position; cited from earlier work

Row | Substance | Binding Pref.
7 | H. sapiens p62 fragment 126-180: amino acid recognition protein, SEQ ID NO: 28 | K, R, H,; also recorded: W, F, Y
8 | Rattus norvegicus p62 protein: amino acid recognition protein, SEQ ID NO: 30 | K, R, H,; also recorded: W, F, Y
9 | H. sapiens p62 fragment 1-180: amino acid recognition protein, SEQ ID NO: 27 | K, R, H,; also recorded: W, F, Y
10 | H. sapiens Src tyrosine kinase SH2 domain: amino acid recognition protein, SEQ ID NO: 24 | phospho-Y
11 | H. sapiens p62 fragment 1-310: amino acid recognition protein, SEQ ID NO: 26 | K, R, H,; also recorded: W, F, Y

Test system: proline iminopeptidase (PIP)
Test: Terminal amino acid cleavage of peptide-linker conjugates monitored by LCMS, PIP
Type: biochemical
Settings: incubated with PIP
Procedure: as §1, §2

Row | Substance | Cleaved by PIP
12 | FPFPFP{LYS(N3)} [Entry 8] | Yes
13 | DPDPDP{LYS(N3)} [Entry 9] | Yes
14 | KPKPKP{LYS(N3)} [Entry 10] | No
15 | KPKPKP{LYS(N3)} [Entry 11] | Yes

From US12618845B2, “Methods and compositions for protein sequencing” (Quantum-Si Incorporated, priority 2018, dated 2026)
